Where “and” joins values, the source holds several entries; their conditions need not be identical. Identical values can stand only once.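 The compound was tested at five concentrations on cells cultured in 96-well plates, with a 48-hour exposure period. At the GI50, growth is halved. TGI marks complete inhibition of growth.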 *1 amine or outer side, *2 acyl side, *3 side chain or, on linkers, in order; H or OH if unused. Where a SMILES comes first, the peptide text is derived from it. [ ]: non-standard residue; d: D form. The star is where a group is joined. X31 = CC(=O)N(C)SCC(N[*:1])C(=O)[*:2]; X47 = CC(=O)N(C)SCC(N*)/C(O)=N\O; Cbz = O=C(OCc1ccccc1)*; Bn = c1ccc(C*)cc1; For = O=C* Some results are limits rather than exact numbers.

This is an account of results in PubChem BioAssay (NCI).

What all share (assay): NCI-60 cell line screen, 48 h
Assay [1] concerns SK-MEL-28 melanoma.
For assay [2], the system named is MALME-3M melanoma.
For assay [3], the system named is HOP-62 NSCLC.
For assay [4], the system named is BT-549 breast.
In assay [5] the test system is NCI-H522 lung.
Assay [6] relates to NCI-H460 lung.
Assay [7] has as its system OVCAR-3 ovarian.
Assay [8] deals with CAKI-1 renal.
In assay [9] the test system is NCI-H23 lung.
In assay [10] the test system is SR leukemia.

As to `O=C(Nc1nnc(-c2ccccc2)o1)C(SC(=S)N1CCCCC1)c1ccccc1` (configuration not stated), the TGI in [1] is > 100 µM; in assay [2] it was > 100 µM; in assay [3] it was 92.1 µM; in assay [4], 39.3 µM; in assay [5], 97.6 µM; in assay [6] it was 34.6 µM. In addition, the TGI is 43.4 µM in assay [7], 77.8 µM in assay [8], 30.7 µM in [9] and > 100 µM in [10].

Take `CCOC(=O)CN1C(=O)c2c(c(C)n(-c3ccccc3)c2C)C1=O`: the TGI in assay [1], in [2], in assay [3], in assay [4], in [5] and in [6] was > 100 µM throughout. For the same compound, the TGI in [7], in assay [8], in assay [9] and in assay [10] was > 100 µM throughout.

Turning to `CCNC(C)Cc1ccccc1` (configuration not stated), the TGI in assay [1], in assay [2], in assay [3], in [5], in [6] and in assay [7] was > 100 µM each time. Further, the TGI in [8], in [9] and in [10] was > 100 µM throughout.

For the compound `CCC1=NC(N/N=C/c2ccco2)=N/C1=C\c1ccccc1O`, the TGI is > 100 µM in assay [1]; 98.9 µM in assay [2]; > 100 µM in [3]; > 100 µM in assay [4]; 49.3 µM in assay [5]; 73.6 µM in [6]. Moreover, the TGI in assay [8], in assay [9] and in [10] was > 100 µM each time.

For the compound `CC(=O)N(C)SCC(NC(=O)C(Cc1ccccc1)NC(=O)OCc1ccccc1)C(=O)NC(Cc1ccccc1)C(=O)NC(Cc1cn(C=O)c2ccccc12)C(=O)NC(CCCCNC(=O)OCc1ccccc1)C(=O)NC(C(=O)NC(CSN(C)C(C)=O)/C(O)=N\O)C(C)OCc1ccccc1` (configuration not stated) (Cbz-F[X31]FW(For)K(Cbz)T(Bn)-X47; configuration not given here), the TGI in assay [1], in [2], in assay [3], in assay [4], in assay [5] and in [6] was > 100 µM throughout. The TGI in [7], in assay [9] and in assay [10] was > 100 µM in each case.

Regarding `COc1cc(C2SC(N)=Nc3c2c(C)nn3C(=O)c2ccccc2O)cc(OC)c1OC` (configuration not stated), the TGI in [1], in assay [2], in assay [3], in [4], in assay [6] and in assay [7] was > 10 µM throughout. For the same compound, the TGI in [8], in assay [9] and in [10] was > 10 µM throughout.

Turning to `O=C(Nc1cccc(-n2ccc3c(NC(=O)c4ccccc4)nccc32)c1)c1ccc(N2CCOCC2)c(C(F)(F)F)c1`, the GI50 was 0.0436 µM in assay [1]; 0.0536 µM in assay [3]; 0.183 µM in [4]; 0.0319 µM in assay [5]; 0.037 µM in [6]; 0.0233 µM in assay [7]. In addition, the GI50 in [8] was 0.0462 µM; in assay [9], 0.0679 µM; in [10], 0.045 µM. The TGI was > 100 µM in [1]; > 94.7 µM in assay [3]; > 67.7 µM in [4]; 0.545 µM in assay [5]; 26.9 µM in [6]; 0.0504 µM in [7]. The TGI in assay [8] was 14.8 µM; in [9], > 90.1 µM; in [10], > 100 µM.

Consider `CC(=O)ON(C(C)=O)c1ccc(-c2nc3ccccc3s2)cc1`, for which the TGI is > 70.8 µM in assay [1]; 30.5 µM in assay [2]; > 55.8 µM in assay [3]; > 100 µM in [4]; 30.7 µM in assay [5]; > 100 µM in [6]. Also, the TGI in [7] was 66.7 µM; in assay [9], > 90.8 µM; in assay [10] it was > 100 µM.

Turning to `OC1[C@H]([C@H]2CCCC[C@@H]2O)CCC[C@@H]1[C@@H]1CCCC[C@H]1O` (some centres not stated), the TGI in [1], in assay [2], in assay [3], in assay [5], in assay [6] and in [7] was > 100 µM throughout. Also, the TGI in assay [8], in assay [9] and in [10] was > 100 µM in each case.

On to `CC[C@]1(O)C[C@H]2CN(CCc3c([nH]c4ccccc34)[C@@](C(=O)OC)(c3cc4c(cc3OC)N(C=O)[C@H]3[C@@](O)(C(=O)OC)[C@H](OC(C)=O)[C@]5(CC)C=CCN6CC[C@]43[C@@H]65)C2)C1`, for which the GI50 in [1] was 0.00464 µM; in assay [5], 0.00705 µM; in assay [6] it was < 0.001 µM; in [8], 1.95 µM; in assay [9], < 0.001 µM; in [10], 0.00657 µM. Besides, the TGI in [1] was 113 µM; in assay [2], 6.23 µM and 32 µM and 58.1 µM; in [3], 56.9 µM and 142 µM; in assay [5] it was 0.226 µM and 0.143 µM; in assay [6], 0.775 µM and 2.35 µM; in assay [8], 9.22 µM and 10.8 µM and 77.2 µM.

With `COc1cc(-c2cn(S(=O)(=O)c3ccc(C)cc3)c3ccccc23)nc(-c2cn(S(=O)(=O)c3ccc(C)cc3)c3ccccc23)n1`, the TGI in assay [1] was > 55.7 µM; in assay [3] it was > 100 µM; in assay [4], > 100 µM; in assay [5], 0.506 µM; in [6] it was > 100 µM; in assay [7], > 100 µM. Besides, the TGI in assay [8] was > 100 µM; in [9], 0.927 µM; in assay [10], > 100 µM.

Turning to `Cc1c(NC(=S)NN)c(=O)n(-c2ccccc2)n1C`, the TGI in assay [1], in [2], in assay [3], in assay [4], in assay [5] and in assay [6] was > 100 µM in each case. Moreover, the TGI in [7], in assay [8] and in assay [10] was > 100 µM each time.
